Several values for one entry are separate records, joined by “and”; a condition that tells them apart may be missing. Equal entries are not always repeated. Entries after “also recorded” stand apart in the source; their conditions may differ.
What was measured:
HeLa cells [1] = assay: ICP-OES analysis of Pt in HeLa cells (uptake); type: cell-based; settings: for Amount of Pt / Total amount of Pt: Supplementary Table S1
Experimental: Supplementary Table 1. ICP-OES analysis of Pt in HeLa cells. a Pt drugs Pt element per cell Percentage of Pt element […]
a HeLa cells were untreated or pre-treated with Na3VO4 (10 mM) for 20 min and then incubated with indicated Pt drug (10 μM) for 1 h. Then, the cells were trypsinized, collected, and the cell numbers were counted and digested with trace metal concentrated HNO3 (65~70%) and HCl (36~38%). The amount of Pt element was determined by […]
b Pt per cell represents the average amount of Pt element in one HeLa cell, which was calculated by dividing the total amount of Pt element in cells by the cell number. c Percentage of Pt taken up by cells was calculated by dividing the total amount of Pt elements in cells by the amount of Pt drugs added. Values denote mean ± s.d. (n = 3 independent experiments). […]
The cell […]
lysates were separated according to a reported fragmentation procedure to obtained different cell fractions: pellet sample N (nuclei) was separated by 600 g for 10 min; pellet sample L (lysosomes and mitochondria) separated by 15000 g for 5 min; pellet sample M (plasma membrane) separated 100000g for 60 min and the remaining supernatant was soluble portion cytoplasm named as cell pellet C (cytosol) Pellets N, L, and M were all re-dispersed in 200 μL of D.I. water. Then, the solutions were collected and dropped on a carbon-coated copper grid, followed by freeze-drying respectively. The samples were then examined in a JEM-2800 Transmission Electron […]
Quantitative analysis of Pt in HeLa cells and different subcellular organelles. HeLa […]
cells were seeded in 10-cm dishes at a density of 4×10^6 cells/well and allowed to grow overnight. The cells were incubated with P-CyPt (10 μM), PtIVNPs (10 μM) and CDDP (10 μM) for 1 h, respectively. In P-CyPt + Na3VO4 group, HeLa cells were first incubated with Na3VO4 (10 mM) for 20 min, and then incubated with P-CyPt (10 μM) for another 60 min. After being washed with PBS for three times, the cells were trypsinized, centrifuged and counted. For Pt distribution analysis, the cells were treated with P-CyPt (10 μM) or CDDP (10 μM) for 1 h, and then washed with PBS for three times, followed by incubation with fresh medium for another 24 h. After that, cells were washed gently with 2 mL PBS once. The cells were trypsinized, centrifuged and counted. The cell lysates were separated according to a reported fragmentation procedure to obtained different cell fractions, including N (nuclei), M (plasma membrane), L (lysosomes and mitochondria) and C (cytosol). The Cells and different cell fractions were digested with concentrated HNO3 (65~70%) and HCl (36~38%) at 90 °C for 24 h. The solution was diluted to 5 mL 2% HNO3 and 5% HCl solution, and the concentration of Pt element was measured by ICP-OES, which was further applied to calculate the amount of Pt in cells and subcellular organelles.
Flow cytometry analysis of HeLa cell death. Approximately 2×10^5 cells/well HeLa cells in 2 mL DMEM medium were seeded onto 6-well plates and allowed to grow overnight. The medium was replaced with 1 mL of fresh medium containing P-CyPt (20 μM), PtIVNPs (20 μM) and CDDP (20 μM), respectively. After 2 h incubation, medium was removed and cells were washed with PBS for three times. Then, cells were incubated with fresh medium for another 48 h to induce different levels of apoptosis.
After gentle washing with PBS (×1), the cells were detached from the plates with trypsin (500 μL per well), and the cell pellets were collected after centrifugation at […] at 4 °C for 4 min. After washing with PBS, the pellets were re-suspended in 500 μL PBS buffer and stained with the annexin V-FITC/PI double staining apoptosis detection kit for flow cytometry. All assays were performed according to the manufacturer instructions, and the cell population was analyzed by annexin V-FITC and PI channels. The count number for each flow cytometry analysis was ~5000 to […]

ALP = target: T1, ALP (Bos taurus, UniProt P19111); assay: ALP-triggered dephosphorylation and in situ self-assembly in solution (HPLC, DLS, TEM); type: biochemical; set-up: amount of compound in the P-CyPt solution (HPLC, Fig. 2h) / mean size by TEM (Fig. 2i) / mean size by DLS (Fig. 2i): unit not given here; settings: for Pt release (ICP-OES, Fig. 2h) / amount of compound in the P-CyPt solution (HPLC, Fig. 2h) / mean size by DLS (Fig. 2i) / mean size by TEM (Fig. 2i): P-CyPt 10 μM, ALP 100 U/L 37 °C
T1 construct: Alkaline phosphatase from bovine; purchased Sigma-Aldrich; host or cells: bovine intestinal mucosa (tissue-derived)
T1 sequence (P19111 20-506 limits assumed): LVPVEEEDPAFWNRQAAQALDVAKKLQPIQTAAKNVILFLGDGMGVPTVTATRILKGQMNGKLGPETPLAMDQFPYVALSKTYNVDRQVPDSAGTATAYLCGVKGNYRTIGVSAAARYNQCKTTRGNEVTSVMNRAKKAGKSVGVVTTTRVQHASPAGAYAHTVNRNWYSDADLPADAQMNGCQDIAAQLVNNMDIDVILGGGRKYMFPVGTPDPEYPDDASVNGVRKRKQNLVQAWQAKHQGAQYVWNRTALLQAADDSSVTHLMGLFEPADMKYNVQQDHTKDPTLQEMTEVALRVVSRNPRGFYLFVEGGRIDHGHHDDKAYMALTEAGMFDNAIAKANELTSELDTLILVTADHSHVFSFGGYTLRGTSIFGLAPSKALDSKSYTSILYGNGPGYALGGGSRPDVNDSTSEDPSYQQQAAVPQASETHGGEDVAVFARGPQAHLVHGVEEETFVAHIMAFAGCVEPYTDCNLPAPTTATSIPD
Experimental: To evaluate the ALP-triggered dephosphorylation and in situ self-assembly process, a solution of P-CyPt (10 μM) in Tris buffer (1 mL) was incubated with ALP (100 U/L) at 37 °C. HPLC, DLS, and TEM analyses were performed at 0, 5, 10, 15, 20, and 30 min. To evaluate the GSH-triggered reduction and disassembly process, P-CyPt (10 μM) in Tris buffer (1 mL) was first incubated with ALP (100 U/L) at 37 °C for 30 min to allow the formation of Pt^IVNPs. The solution was then treated with 10 mM GSH at 37 °C, which was monitored by HPLC, DLS, and TEM at 10, 20, 30, 40, 50, and 60 min.

[2] = Side toxicity in s.c. HeLa tumor-bearing mice (body weight, BUN, CRE, H&E); settings: for body weight during treatment: 2.25 mg kg^−1 Pt i.v. x5, 21 days; for increase of blood urea nitrogen (BUN) level / increase of creatinine (CRE) level: day 21
[3] = tested on: orthotopic HepG2/Luc liver tumors; assay: Chemotherapy of orthotopic liver tumors (BL imaging, ex vivo BL and FL imaging); type: in vivo, mice;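 further: bioluminescence quantified by ROI over liver region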
HeLa cells [4] = assay: Flow cytometry analysis of HeLa cell death (Annexin V-FITC/PI); type: cell-based, human; settings: 20 μM 2 h, then blank medium 48 h
Experimental: Flow cytometric analysis of HeLa cell death. (a) Gating strategy applied for flow cytometric analysis. (b) Representative flow cytometric analysis of HeLa cells by Annexin V-FITC/PI staining. HeLa cells were treated with PBS, CDDP, PtIVNPs or P-CyPt (20 μM) for 2 h, washed with cold PBS for three times, and then continued incubation in refresh blank DMEM medium for another 48 h. The cells were then stained with the Annexin V-FITC/PI kit, and analyzed by flow cytometry. One representative experiment out of two is shown.
After gentle washing with PBS (×1), the cells were detached from the plates with trypsin (500 μL per well), and the cell pellets were collected after centrifugation at 1000 161× g at 4 °C for 4 min. […] All assays were performed according to the manufacturer instructions, and the cell population was analyzed by annexin V-FITC and PI channels. […]

[5] = 2.25 mg kg^−1 Pt i.v. day 0, 3, 6, 9, 12, day 3

CC1(C)C(/C=C/C2=C3Oc4cc(OP(=O)(O)O)c(Cl)cc4C=C3CCC2)=[N+](CCCNC(=O)[C@@H](Cc2ccccc2)NC(=O)[C@@H](Cc2ccccc2)NC(=O)CCC(=O)[O][Pt]([NH2])([NH2])([OH])([Cl])[Cl])c2ccccc21 [P-CyPt]
Pt element per cell (HeLa cells [1]; HeLa cells, Pt drug 10 μM, 1 h, ICP-OES): 24.60 ± 3.5 fmol/cell
Percentage of Pt element taken up by cells (HeLa cells [1]; HeLa cells, Pt drug 10 μM, 1 h, of Pt drug added): 36.9 ± 5.3%
Amount of Pt (HeLa cells [1]; individual samples): 20.8193 fmol/cell and 25.1404 fmol/cell and 27.8508 fmol/cell
Total amount of Pt (HeLa cells [1]; individual samples): 31.255% and 37.742% and 41.811%
Amount of Pt (HeLa cells [1]; mean of 3 samples): 24.6035 fmol/cell
Total amount of Pt (HeLa cells [1]; mean of 3 samples): 36.936%
conversion of P-CyPt into CyPt on incubation with ALP (HPLC) (ALP; 100 U/L ALP, Tris buffer pH 8.0, after 30 min): completely converted into CyPt
Pt release (ICP-OES, Fig. 2h) (ALP; 0 min): 0%
amount of compound in the P-CyPt solution (HPLC, Fig. 2h) (ALP; 0 min): 100.00
mean size by DLS (Fig. 2i) (ALP; 0 min): 0.00
mean size by TEM (Fig. 2i) (ALP; 0 min): 0.00
Pt release (ICP-OES, Fig. 2h) (ALP; 5 min): 0%
amount of compound in the P-CyPt solution (HPLC, Fig. 2h) (ALP; 5 min): 72.64
mean size by DLS (Fig. 2i) (ALP; 5 min): 45.78
mean size by TEM (Fig. 2i) (ALP; 5 min): 54.14
Pt release (ICP-OES, Fig. 2h) (ALP; 10 min): 0%
amount of compound in the P-CyPt solution (HPLC, Fig. 2h) (ALP; 10 min): 46.65
mean size by DLS (Fig. 2i) (ALP; 10 min): 88.09
mean size by TEM (Fig. 2i) (ALP; 10 min): 87.54
Pt release (ICP-OES, Fig. 2h) (ALP; 15 min): 0%
amount of compound in the P-CyPt solution (HPLC, Fig. 2h) (ALP; 15 min): 28.27
mean size by DLS (Fig. 2i) (ALP; 15 min): 112.94
mean size by TEM (Fig. 2i) (ALP; 15 min): 105.56
Pt release (ICP-OES, Fig. 2h) (ALP; 20 min): 0%
amount of compound in the P-CyPt solution (HPLC, Fig. 2h) (ALP; 20 min): 6.15
mean size by DLS (Fig. 2i) (ALP; 20 min): 150.95
mean size by TEM (Fig. 2i) (ALP; 20 min): 121.94
Pt release (ICP-OES, Fig. 2h) (ALP; 30 min): 0%
amount of compound in the P-CyPt solution (HPLC, Fig. 2h) (ALP; 30 min): 1.54
mean size by DLS (Fig. 2i) (ALP; 30 min): 162.05
mean size by TEM (Fig. 2i) (ALP; 30 min): 152.65
body weight during treatment [2]: similar
increase of blood urea nitrogen (BUN) level [2]: not obviously upregulated
increase of creatinine (CRE) level [2]: not obviously upregulated
H&E staining of major organs (side toxicity) ([2]; day 21 after 5 doses of 2.25 mg kg^−1 Pt): all organs looked normal; also recorded: no apparent cell death
tumor BL intensity of liver [3, 5]: 2725.3
tumor BL intensity of liver ([3]; day 6): 3155.3
tumor BL intensity of liver ([3]; day 9): 3616.5
tumor BL intensity of liver ([3]; day 12): 6594.0
apoptosis population (HeLa cells [4]): ~ 64.5%

CC1(C)C(/C=C/C2=C3Oc4cc(O)c(Cl)cc4C=C3CCC2)=[N+](CCCNC(=O)[C@@H](Cc2ccccc2)NC(=O)[C@@H](Cc2ccccc2)NC(=O)CCC(=O)[O][Pt]([NH2])([NH2])([OH])([Cl])[Cl])c2ccccc21 [CyPt]
Amount of Pt (HeLa cells [1]; individual samples): 1.96 fmol/cell and 1.6407 fmol/cell and 1.595 fmol/cell
Total amount of Pt (HeLa cells [1]; individual samples): 2.9% and 2.428% and 2.36%
Amount of Pt (HeLa cells [1]; mean of 3 samples): 1.7317 fmol/cell
Total amount of Pt (HeLa cells [1]; mean of 3 samples): 2.563%
amount of compound in the P-CyPt solution (HPLC, Fig. 2h) (ALP; 0 min): 0.00
amount of compound in the P-CyPt solution (HPLC, Fig. 2h) (ALP; 5 min): 28.25
amount of compound in the P-CyPt solution (HPLC, Fig. 2h) (ALP; 10 min): 54.36
amount of compound in the P-CyPt solution (HPLC, Fig. 2h) (ALP; 15 min): 71.75
amount of compound in the P-CyPt solution (HPLC, Fig. 2h) (ALP; 20 min): 94.94
amount of compound in the P-CyPt solution (HPLC, Fig. 2h) (ALP; 30 min): 100.00

[NH2][Pt]([NH2])([Cl])[Cl] [CDDP, cisplatin]
body weight during treatment [2]: obviously decreased
increase of blood urea nitrogen (BUN) level [2]: ~ 1.6 fold
increase of creatinine (CRE) level [2]: ~ 1.4 fold
tumor BL intensity of liver [3, 5]: 88767.5
tumor BL intensity of liver ([3]; day 6): 201697.5
tumor BL intensity of liver ([3]; day 9): 375850.0
tumor BL intensity of liver ([3]; day 12): 589375.0
apoptosis population (HeLa cells [4]): ~ 5.20%

From paper PMC9925730, “Controlled sequential in situ self-assembly and disassembly of a fluorogenic cisplatin prodrug for cancer theranostics” (Nature Communications, 2023)
